Tests used:
Conditions in all cases: incubation time: 72 h
CAL-85-1 [1] = experiment: normalised response (% of control), CellTiter-Glo; higher = more viable cells (100 = DMSO, 0 = benzethonium chloride kill control)
Description: (§1)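 DSRT, 72 h incubation, CellTox Green / CellTiter-Glo readout. Signal is normalised to DMSO and benzethonium chloride controls. Value is the normalised response at the highest dose.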

BT-549 = experiment: as above
Description: as §1

MDA-MB-468 = experiment: as above
Description: as §1

Hs578T = experiment: as above
Description: as §1

HCC1143 = experiment: as above
Description: as §1

DU-4475 [2] = experiment: as above
Description: as §1

MFM-223 = experiment: as above
Description: as §1

CAL-148 [3] = experiment: as above
Description: as §1

MDA-MB-453 [4] = experiment: as above
Description: as §1

HCC1599 [5] = experiment: as above
Description: as §1

HCC1937 = experiment: as above
Description: as §1

HDQ-P1 [6] = experiment: as above
Description: as §1

BT-474 = experiment: as above
Description: as §1

CAL-120 [7] = experiment: as above
Description: as §1

CAL-51 [8] = experiment: as above
Description: as §1

SK-BR-3 = experiment: as above
Description: as §1

MCF-10A = experiment: as above
Description: as §1

MDA-MB-436 = experiment: as above
Description: as §1

MDA-MB-231 [9] = experiment: as above
Description: as §1

CAL-85-1 [10] = experiment: normalised response (% of control), CellTiter-Glo; higher = more viable cells (100 = DMSO, 0 = benzethonium chloride kill control); remark: listed apart in the source
In short: (§2)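 Plates were normalised with 0.1 % DMSO as 100 and a positive kill control as 0. Breast cancer cell lines in 20 µl suspension had been seeded into 384-well plates with compound at 5 concentrations in 10-fold steps over a compound-specific 10,000-fold range, incubated 72 h, and read for CellTox Green fluorescence (485/520 nm) followed by CellTiter-Glo luminescence. Each value is the normalised signal at a single concentration.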

HCC1599 [11] = experiment: as above; remark: listed apart in the source
In short: as §2

CAL-120 [12] = experiment: as above; remark: listed apart in the source
In short: as §2

MDA-MB-231 [13] = experiment: as above; remark: listed apart in the source
In short: as §2

CAL-85-1 [14] = experiment: normalised viability (% of control), CellTiter-Blue; higher = more viable cells (about 100 = DMSO control)
Description: (§3)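 DSRT, CellTiter-Blue viability, 72 h incubation. Signal is normalised to DMSO and benzethonium chloride controls. Value is the normalised response at dose 9.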

DU-4475 [15] = experiment: as above
Description: as §3

CAL-148 [16] = experiment: as above
Description: as §3

MDA-MB-453 [17] = experiment: as above
Description: as §3

HDQ-P1 [18] = experiment: as above
Description: as §3

CAL-51 [19] = experiment: as above
Description: as §3

Row | Structure (SMILES) | normalised response (CAL-85-1 [1]) | normalised response (BT-549) | normalised response (MDA-MB-468) | normalised response (Hs578T) | normalised response (HCC1143) | normalised response (DU-4475 [2]) | normalised response (MFM-223) | normalised response (CAL-148 [3]) | normalised response (MDA-MB-453 [4]) | normalised response (HCC1599 [5]) | normalised response (HCC1937) | normalised response (HDQ-P1 [6]) | normalised response (BT-474) | normalised response (CAL-120 [7]) | normalised response (CAL-51 [8]) | normalised response (SK-BR-3) | normalised response (MCF-10A) | normalised response (MDA-MB-436) | normalised response (MDA-MB-231 [9]) | normalised response (CAL-85-1 [10]) | normalised response (HCC1599 [11]) | normalised response (CAL-120 [12]) | normalised response (MDA-MB-231 [13]) | normalised viability (CAL-85-1 [14]) | normalised viability (DU-4475 [15]) | normalised viability (CAL-148 [16]) | normalised viability (MDA-MB-453 [17]) | normalised viability (HDQ-P1 [18]) | normalised viability (CAL-51 [19])
1 | Cc1ccc(C(=O)N(CCCN)[C@@H](c2oc3cc(Cl)ccc3c(=O)c2Cc2ccccc2)C(C)C)cc1 (100 nM) | 97.8% | 99.6% | 101% | 100% | 96% | 92.8% | 97.2% | 88.9% | 91.6% | 97.5% | 95.5% | 104% | 95.6% | 103% | 72.3% | 91.9% | 96.8% | 88.3% | 93% |  |  |  |  |  |  |  |  |  | 
2 | CO[C@H]1/C=C\C=C(/C)C(=O)NC2=CC(=O)C(NCCN(C)C)=C(C[C@@H](C)C[C@H](OC)[C@H](O)[C@@H](C)/C=C(\C)[C@@H]1OC(N)=O)C2=O [Alvespimycin] (100 nM) |  |  |  |  |  |  |  |  |  |  |  |  |  |  |  |  |  |  |  | 23% | 76.9% | 52% | 26.5% |  |  |  |  |  | 
3 | CO[C@H]1/C=C\C=C(/C)C(=O)NC2=CC(=O)C(NCCN(C)C)=C(C[C@@H](C)C[C@H](OC)[C@H](O)[C@@H](C)/C=C(\C)[C@@H]1OC(N)=O)C2=O [Alvespimycin] (1000 nM) | 18.1% | 39.5% | 34.2% | 35.4% | 33.1% | 0.05% | 39.2% | 26.3% | 28.1% | 58.8% | 21.6% | 22.4% | 28% | 47.8% | 16.2% | 36% | 15.4% | 44.9% | 19% |  |  |  |  | 18.6% | -0.26% | 4.23% | 3.62% | 29.6% | 6.39%
4 | CCC1(c2ccc(N)cc2)CCC(=O)NC1=O (stereo not drawn) [Aminoglutethimide] (1000 nM) |  |  |  |  |  |  |  |  |  |  |  |  |  |  |  |  |  |  |  | 103% | 115% | 105% | 105% |  |  |  |  |  | 
5 | CCC1(c2ccc(N)cc2)CCC(=O)NC1=O (stereo not drawn) [Aminoglutethimide] (10000 nM) | 106% | 98.1% | 97.3% | 95.1% | 97.4% | 101% | 97.8% | 108% | 101% | 108% | 94.5% | 102% | 105% | 109% | 145% | 97.2% | 101% | 102% | 103% |  |  |  |  | 106% | 97.9% | 112% | 81.6% | 120% | 85.2%
6 | Cn1c(CCCC(=O)O)nc2cc(N(CCCl)CCCl)ccc21 [Bendamustine] (1000 nM) |  |  |  |  |  |  |  |  |  |  |  |  |  |  |  |  |  |  |  | 101% | 105% | 104% | 106% |  |  |  |  |  | 
7 | C=C(c1ccc(C(=O)O)cc1)c1cc2c(cc1C)C(C)(C)CCC2(C)C [Bexarotene] (1000 nM) |  |  |  |  |  |  |  |  |  |  |  |  |  |  |  |  |  |  |  | 102% | 57.6% | 104% | 106% |  |  |  |  |  | 
8 | COc1cc2nccc(Oc3ccc(NC(=O)C4(C(=O)Nc5ccc(F)cc5)CC4)cc3)c2cc1OC [Cabozantinib] (100 nM) |  |  |  |  |  |  |  |  |  |  |  |  |  |  |  |  |  |  |  | 93.6% | 117% | 101% | 90.5% |  |  |  |  |  | 
9 | N.N.[Cl][Pt][Cl] [Cisplatin] (1000 nM) | 104% | 101% | 105% | 100% | 103% | 94.7% | 99.9% | 96.9% | 106% | 101% | 106% | 95.3% | 94% | 105% | 87.5% | 92.3% | 94% | 100% | 96.3% |  |  |  |  |  |  |  |  |  | 
